The experiment addresses T1, SRC (Homo sapiens, UniProt P12931).
T1 construct: purchased Thermo Fisher Scientific (Life Technologies) SelectScreen
In words: SelectScreen Z'LYTE. Format: biochemical. The procedure, abridged:
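NU5455 was profiled across the SelectScreen Broad panel of kinase activity and binding assays. Z'LYTE reactions such as CSF1R ran at apparent Km ATP, while the Adapta CAMK1 assay used ATP listed as 10. Values are given as percent.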

For orientation: inhibition means the percentage by which the read-out fell short of the control. Lower therefore signals a response near the control.

T1 sequence (P12931 whole entry): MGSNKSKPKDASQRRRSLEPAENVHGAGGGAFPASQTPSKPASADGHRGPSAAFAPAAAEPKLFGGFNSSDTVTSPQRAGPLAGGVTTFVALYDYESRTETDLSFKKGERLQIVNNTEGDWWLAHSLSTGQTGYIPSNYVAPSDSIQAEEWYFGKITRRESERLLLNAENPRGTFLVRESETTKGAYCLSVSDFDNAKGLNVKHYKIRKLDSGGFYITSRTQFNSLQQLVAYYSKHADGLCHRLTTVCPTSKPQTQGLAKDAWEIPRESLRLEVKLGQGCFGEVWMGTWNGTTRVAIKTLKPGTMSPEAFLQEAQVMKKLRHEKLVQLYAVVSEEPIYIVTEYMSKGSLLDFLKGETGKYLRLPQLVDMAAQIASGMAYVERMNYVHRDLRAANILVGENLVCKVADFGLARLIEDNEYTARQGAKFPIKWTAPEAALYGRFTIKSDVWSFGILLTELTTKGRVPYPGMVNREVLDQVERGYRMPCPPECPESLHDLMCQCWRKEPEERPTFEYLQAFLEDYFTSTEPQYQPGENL

As for `CN(C(=O)CN1CCOCC1)c1ccc2sc3c(-c4cccc5c(=O)cc(N6CC7CCC(C6)O7)oc45)cccc3c2c1` [NU5455], the inhibition at 1 µM was 9.5%.

The values are drawn from article PMC6934184, “Selective DNA-PKcs inhibition extends the therapeutic index of localized radiotherapy and chemotherapy” (The Journal of Clinical Investigation, 2019).
